Tested on: balloon-injured rat carotid artery
Test: Cell proliferation in injured arterial wall (α-smooth muscle actin and PCNA immunostaining)
Assay type: in vivo, Sprague-Dawley rats
Method: In order to address the mechanisms underlying the effect of copper chelation on neointima formation, TTM was administered for 2 weeks before the balloon injury and daily after that until the animals were euthanized at the 4th and 7th day after the procedure. Accordingly, TTM-free animals euthanized 4 and 7 days after the injury were used as controls.
Proliferating cell nuclear antigen (PCNA) analysis was used to quantify the proliferative activity of cells at the balloon injury sites, and it was performed according to Siitonen et al. Briefly, PCNA-positive cells were counted in the vessel cross sections using a standard light microscope equipped with an ocular reticule (magnification ×10) and a ×40 objective. At least 500 nuclei were counted from each slide. The sections were photographed under low power, the images were video-digitized, and stored in the image analysis system (Qwin Lite 2.2, Leica). Staining results were expressed as percentage of PCNA-immunoreactive cell nuclei. Faint diffuse nuclear staining seen in some tissue sections was not included in the PCNA score.
Macrophage migration was evaluated by immunostaining with the macrophage-specific monoclonal antibody CD11b (MAC1) in acetone/ethanol fixed sections. To quantitate the extent of macrophage invasion, the area occupied by MAC1-positive cells as a percentage of the total area of the neointima was determined. The number of SMCs in the injured artery was counted at day 4, 7 and 14 by the modified method of Prescott et al. Briefly, the cross-sections were subjected to immunohistostaining against α-smooth muscle actin using a commercially available detection system (DAKO) and counter-stained with hematoxylin. The number of nuclei that were accompanied by α-smooth muscle actin-positive cytoplasm was counted at a magnification of ×40 in 10 independent sections from each rat by an observer in a blind manner.

[NH4+].[NH4+].[SH-].[SH-].[S]=[Mo]=[S] [TTM, ammonium tetrathiomolybdate]
SMA-positive cells in the neointima vs TTM-free rats (7 and 14 days after the injury): significantly less abundant
PCNA-positive cells in the neointimal area (14 days after balloon angioplasty, 10 mg/kg, 2 weeks before/2 weeks after injury, n=5, P<0.05): significant reduction
SMA-positive cells in the neointima vs TTM-free rats (day 4 after the balloon injury): No significant difference
